# Laboratory results from paper PMC4904262 (ACS Medicinal Chemistry Letters, 2016).
# Experiments:
# PTK5 = PTK5 (Homo sapiens, UniProt P42685); conditions: 1 µM, ATP at Km
# FES = FES (Homo sapiens, UniProt P07332); conditions: 1 µM, ATP at Km
# DAPK1 = DAPK1 (Homo sapiens, UniProt P53355); conditions: 1 µM, ATP at Km
# PKBBETA = PKBBETA (Homo sapiens, UniProt P31751); conditions: 1 µM, ATP at Km
# GCK = GCK (Homo sapiens, UniProt Q12851); conditions: 1 µM, ATP at Km
# PKBALPHA = PKBALPHA (Homo sapiens, UniProt P31749); conditions: 1 µM, ATP at Km
# SAPK3 = SAPK3 (Homo sapiens, UniProt P53778); conditions: 1 µM, ATP at Km
# WNK3 = WNK3 (Homo sapiens, UniProt Q9BYP7); conditions: 1 µM, ATP at Km
# SRPK1 = SRPK1 (Homo sapiens, UniProt Q96SB4); conditions: 1 µM, ATP at Km
# TXK = TXK (Homo sapiens, UniProt P42681); conditions: 1 µM, ATP at Km
# ZAP-70 = ZAP-70 (Homo sapiens, UniProt P43403); conditions: 1 µM, ATP at Km
# ARK5 = ARK5 (Homo sapiens, UniProt O60285); conditions: 1 µM, ATP at Km
# PKCALPHA = PKCALPHA (Homo sapiens, UniProt P17252); conditions: 1 µM, ATP at Km
# MUSK = MUSK (Homo sapiens, UniProt O15146); conditions: 1 µM, ATP at Km
# SIK = SIK (Homo sapiens, UniProt P57059); conditions: 1 µM, ATP at Km
# SAPK2B = SAPK2B (Homo sapiens, UniProt Q15759); conditions: 1 µM, ATP at Km
# EPHA4 = EPHA4 (Homo sapiens, UniProt P54764); conditions: 1 µM, ATP at Km
# PRKAA1 = PRKAA1 (Homo sapiens, UniProt Q13131); conditions: 1 µM, ATP at Km
# FGFR1 = FGFR1 (Homo sapiens, UniProt P11362); conditions: 1 µM, ATP at Km
# CK2 = CK2 (Homo sapiens, UniProt P68400); conditions: 1 µM, ATP at Km
# DRAK1 = DRAK1 (Homo sapiens, UniProt Q9UEE5); conditions: 1 µM, ATP at Km
# PHKGAMMA2 = PHKGAMMA2 (Homo sapiens, UniProt P15735); conditions: 1 µM, ATP at Km
# RSK1 = RSK1 (Homo sapiens, UniProt Q15418); conditions: 1 µM, ATP at Km
# SYK = SYK (Homo sapiens, UniProt P43405); conditions: 1 µM, ATP at Km
# PRKAA2 = PRKAA2 (Homo sapiens, UniProt P54646); conditions: 1 µM, ATP at Km
# NEK11 = NEK11 (Homo sapiens, UniProt Q8NG66); conditions: 1 µM, ATP at Km
# PAK5 = PAK5 (Homo sapiens, UniProt Q9P286); conditions: 1 µM, ATP at Km
# PRAK = PRAK (Homo sapiens, UniProt Q8IW41); conditions: 1 µM, ATP at Km
# ULK3 = ULK3 (Homo sapiens, UniProt Q6PHR2); conditions: 1 µM, ATP at Km
# PIM-3 = PIM-3 (Homo sapiens, UniProt Q86V86); conditions: 1 µM, ATP at Km
# PIM-1 = PIM-1 (Homo sapiens, UniProt P11309); conditions: 1 µM, ATP at Km
# CK1GAMMA3 = CK1GAMMA3 (Homo sapiens, UniProt Q9Y6M4); conditions: 1 µM, ATP at Km
# RON = RON (Homo sapiens, UniProt Q04912); conditions: 1 µM, ATP at Km
# LCK = LCK (Homo sapiens, UniProt P06239); conditions: LCK (first listing, page 9); 1 µM; ATP at Km
# HCK = HCK (Homo sapiens, UniProt P08631); conditions: HCK (first listing, page 8); 1 µM; ATP at Km
# EPHA8 = EPHA8 (Homo sapiens, UniProt P29322); conditions: 1 µM, ATP at Km
# NEK2 = NEK2 (Homo sapiens, UniProt P51955); conditions: 1 µM, ATP at Km
# PKCGAMMA = PKCGAMMA (Homo sapiens, UniProt P05129); conditions: 1 µM, ATP at Km
# TLK2 = TLK2 (Homo sapiens, UniProt Q86UE8); conditions: 1 µM, ATP at Km
# PKCZETA = PKCZETA (Homo sapiens, UniProt Q05513); conditions: 1 µM, ATP at Km
# AURKB = AURKB (Homo sapiens, UniProt Q96GD4); conditions: 1 µM, ATP at Km
# […] = […] (Homo sapiens, UniProt Q13557); conditions: 1 µM, ATP at Km
# PKCETA = PKCETA (Homo sapiens, UniProt P24723); conditions: 1 µM, ATP at Km
# PLK3 = PLK3 (Homo sapiens, UniProt Q9H4B4); conditions: 1 µM, ATP at Km
# Chain of PRKAA1 (Q13131 whole entry): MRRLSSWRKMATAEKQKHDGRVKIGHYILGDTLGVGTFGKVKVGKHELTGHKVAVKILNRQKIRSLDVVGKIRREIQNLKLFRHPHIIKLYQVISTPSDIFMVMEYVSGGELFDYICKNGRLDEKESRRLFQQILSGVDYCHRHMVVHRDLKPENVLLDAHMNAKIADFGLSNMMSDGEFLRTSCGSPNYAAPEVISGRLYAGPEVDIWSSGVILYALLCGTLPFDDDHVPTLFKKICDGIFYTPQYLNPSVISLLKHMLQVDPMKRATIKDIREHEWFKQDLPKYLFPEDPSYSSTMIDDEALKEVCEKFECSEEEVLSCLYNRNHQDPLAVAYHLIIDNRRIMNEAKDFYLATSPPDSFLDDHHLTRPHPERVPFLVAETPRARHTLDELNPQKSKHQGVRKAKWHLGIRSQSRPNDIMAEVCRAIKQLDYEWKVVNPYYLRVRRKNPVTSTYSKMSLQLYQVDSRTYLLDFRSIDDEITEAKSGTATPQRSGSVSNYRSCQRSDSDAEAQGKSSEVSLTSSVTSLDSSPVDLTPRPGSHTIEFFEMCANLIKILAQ
# Chain of PRKAA1 (Q9Y478 whole entry partner): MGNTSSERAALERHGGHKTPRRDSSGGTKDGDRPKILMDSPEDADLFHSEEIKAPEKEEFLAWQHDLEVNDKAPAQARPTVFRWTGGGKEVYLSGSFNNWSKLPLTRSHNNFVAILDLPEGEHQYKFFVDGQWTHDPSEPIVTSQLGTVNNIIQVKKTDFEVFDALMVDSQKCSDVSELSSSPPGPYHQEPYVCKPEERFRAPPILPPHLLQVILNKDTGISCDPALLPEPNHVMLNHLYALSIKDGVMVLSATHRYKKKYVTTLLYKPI
# Chain of PRKAA1 (P54619 whole entry partner): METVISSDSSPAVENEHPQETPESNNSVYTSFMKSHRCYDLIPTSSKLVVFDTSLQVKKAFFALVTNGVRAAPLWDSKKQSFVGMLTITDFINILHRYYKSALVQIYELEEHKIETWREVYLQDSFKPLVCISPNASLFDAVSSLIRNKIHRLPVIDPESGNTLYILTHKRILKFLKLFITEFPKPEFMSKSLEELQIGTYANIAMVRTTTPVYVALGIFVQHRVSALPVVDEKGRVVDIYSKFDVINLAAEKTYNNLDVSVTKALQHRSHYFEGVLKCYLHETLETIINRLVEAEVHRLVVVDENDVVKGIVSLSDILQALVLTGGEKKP
# Chain of PAK5 (Q9P286 whole entry): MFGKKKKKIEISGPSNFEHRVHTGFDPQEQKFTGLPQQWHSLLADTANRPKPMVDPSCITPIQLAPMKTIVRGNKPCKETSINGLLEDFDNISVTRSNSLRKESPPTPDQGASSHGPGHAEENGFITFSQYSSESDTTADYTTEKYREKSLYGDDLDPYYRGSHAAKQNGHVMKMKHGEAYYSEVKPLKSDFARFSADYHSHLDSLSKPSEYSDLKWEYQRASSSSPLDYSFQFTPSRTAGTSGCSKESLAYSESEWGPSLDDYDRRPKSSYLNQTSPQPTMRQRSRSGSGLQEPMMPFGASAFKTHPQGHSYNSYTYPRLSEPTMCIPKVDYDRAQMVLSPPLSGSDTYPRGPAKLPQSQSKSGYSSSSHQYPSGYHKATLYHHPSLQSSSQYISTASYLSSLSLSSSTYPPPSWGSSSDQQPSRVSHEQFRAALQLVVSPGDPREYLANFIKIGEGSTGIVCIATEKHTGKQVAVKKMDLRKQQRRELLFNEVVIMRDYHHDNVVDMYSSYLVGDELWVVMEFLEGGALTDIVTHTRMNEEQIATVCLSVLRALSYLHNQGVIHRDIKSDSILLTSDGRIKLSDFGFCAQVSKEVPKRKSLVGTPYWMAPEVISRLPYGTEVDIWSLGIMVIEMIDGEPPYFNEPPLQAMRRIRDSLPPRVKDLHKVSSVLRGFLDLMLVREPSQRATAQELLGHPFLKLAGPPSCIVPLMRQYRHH
# Chain of SRPK1 (Q96SB4 whole entry): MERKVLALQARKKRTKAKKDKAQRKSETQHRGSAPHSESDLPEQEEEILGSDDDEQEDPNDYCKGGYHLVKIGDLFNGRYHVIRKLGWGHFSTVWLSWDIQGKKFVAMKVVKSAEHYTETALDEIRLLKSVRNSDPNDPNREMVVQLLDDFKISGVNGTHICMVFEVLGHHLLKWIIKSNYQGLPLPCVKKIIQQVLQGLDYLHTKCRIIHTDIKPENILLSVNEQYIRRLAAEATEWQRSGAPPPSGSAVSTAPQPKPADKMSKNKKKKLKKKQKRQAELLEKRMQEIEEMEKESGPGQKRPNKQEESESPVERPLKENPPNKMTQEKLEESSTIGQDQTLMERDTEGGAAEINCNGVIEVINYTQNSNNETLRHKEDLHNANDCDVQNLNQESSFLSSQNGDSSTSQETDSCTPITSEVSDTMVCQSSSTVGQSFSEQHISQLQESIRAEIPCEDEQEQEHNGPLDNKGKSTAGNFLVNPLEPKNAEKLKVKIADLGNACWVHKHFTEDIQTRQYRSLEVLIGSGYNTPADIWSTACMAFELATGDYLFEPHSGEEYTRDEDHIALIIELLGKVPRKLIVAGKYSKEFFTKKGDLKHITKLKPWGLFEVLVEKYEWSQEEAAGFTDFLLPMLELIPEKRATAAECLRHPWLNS
# Chain of RSK1 (Q15418 whole entry): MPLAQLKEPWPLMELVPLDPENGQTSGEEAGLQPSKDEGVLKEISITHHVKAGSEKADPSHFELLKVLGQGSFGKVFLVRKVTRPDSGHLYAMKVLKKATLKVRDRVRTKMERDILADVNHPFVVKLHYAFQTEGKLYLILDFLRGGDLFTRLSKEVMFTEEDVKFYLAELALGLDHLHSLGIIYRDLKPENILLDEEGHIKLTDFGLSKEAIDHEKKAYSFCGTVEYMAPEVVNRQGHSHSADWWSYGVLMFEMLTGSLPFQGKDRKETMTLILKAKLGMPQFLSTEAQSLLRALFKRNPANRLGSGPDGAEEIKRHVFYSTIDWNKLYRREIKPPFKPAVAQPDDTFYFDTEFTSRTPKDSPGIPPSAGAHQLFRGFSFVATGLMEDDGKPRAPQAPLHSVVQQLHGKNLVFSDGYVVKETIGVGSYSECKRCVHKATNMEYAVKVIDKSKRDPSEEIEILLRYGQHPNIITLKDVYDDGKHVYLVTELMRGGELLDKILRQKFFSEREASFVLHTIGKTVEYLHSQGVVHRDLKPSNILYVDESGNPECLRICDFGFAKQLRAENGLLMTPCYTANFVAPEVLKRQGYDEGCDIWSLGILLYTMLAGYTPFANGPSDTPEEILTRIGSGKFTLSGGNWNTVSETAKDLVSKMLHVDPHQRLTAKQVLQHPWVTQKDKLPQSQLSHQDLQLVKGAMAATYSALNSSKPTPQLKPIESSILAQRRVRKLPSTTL
# Chain of PKBBETA (P31751 whole entry): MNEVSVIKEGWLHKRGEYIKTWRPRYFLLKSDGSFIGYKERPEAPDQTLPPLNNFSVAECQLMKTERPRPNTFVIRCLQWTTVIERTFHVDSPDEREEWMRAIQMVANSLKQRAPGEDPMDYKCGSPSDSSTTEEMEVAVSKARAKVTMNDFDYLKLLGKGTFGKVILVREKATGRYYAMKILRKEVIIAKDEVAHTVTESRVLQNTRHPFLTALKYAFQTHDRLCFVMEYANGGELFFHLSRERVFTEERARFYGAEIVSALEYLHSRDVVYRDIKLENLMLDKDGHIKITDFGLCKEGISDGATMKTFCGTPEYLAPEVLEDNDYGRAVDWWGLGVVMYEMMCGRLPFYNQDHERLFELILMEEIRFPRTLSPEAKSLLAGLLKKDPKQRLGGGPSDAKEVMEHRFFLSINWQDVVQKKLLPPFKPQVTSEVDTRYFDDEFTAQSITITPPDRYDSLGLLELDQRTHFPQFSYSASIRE
# Chain of ULK3 (Q6PHR2 whole entry): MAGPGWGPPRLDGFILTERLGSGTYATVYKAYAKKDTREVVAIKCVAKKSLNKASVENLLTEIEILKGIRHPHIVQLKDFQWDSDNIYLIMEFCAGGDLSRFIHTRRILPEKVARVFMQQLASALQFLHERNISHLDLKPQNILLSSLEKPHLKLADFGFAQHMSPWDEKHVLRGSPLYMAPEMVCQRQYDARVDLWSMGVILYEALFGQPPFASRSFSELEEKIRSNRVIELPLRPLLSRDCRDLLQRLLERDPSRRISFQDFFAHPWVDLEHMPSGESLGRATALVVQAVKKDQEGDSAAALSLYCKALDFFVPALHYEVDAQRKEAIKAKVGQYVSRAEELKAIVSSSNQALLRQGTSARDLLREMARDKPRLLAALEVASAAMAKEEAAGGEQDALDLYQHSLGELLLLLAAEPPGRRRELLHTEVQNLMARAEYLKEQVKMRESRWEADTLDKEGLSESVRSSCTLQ
smiles,measurement,setting,value
COC1CN(C(=O)c2ccc3c(N)ncc(-c4ccc(-c5cnn(C)c5)cc4)c3n2)C1 [Compound 51],percentage effect,PTK5,-8%
same,percentage effect,FES,-3%
same,percentage effect,DAPK1,0%
same,percentage effect,PKBBETA,13%
same,percentage effect,GCK,-26%
same,percentage effect,PKBALPHA,-11%
same,percentage effect,SAPK3,-11%
same,percentage effect,WNK3,-9%
same,percentage effect,SRPK1,3%
same,percentage effect,TXK,-13%
same,percentage effect,ZAP-70,-3%
same,percentage effect,ARK5,2%
same,percentage effect,PKCALPHA,-10%
same,percentage effect,MUSK,3%
same,percentage effect,SIK,-3%
same,percentage effect,SAPK2B,0%
same,percentage effect,EPHA4,2%
same,percentage effect,PRKAA1,-1%
same,percentage effect,FGFR1,10%
same,percentage effect,CK2,5%
same,percentage effect,DRAK1,1%
same,percentage effect,PHKGAMMA2,10%
same,percentage effect,RSK1,13%
same,percentage effect,SYK,-10%
same,percentage effect,PRKAA2,-1%
same,percentage effect,NEK11,3%
same,percentage effect,PAK5,-23%
same,percentage effect,PRAK,15%
same,percentage effect,ULK3,2%
same,percentage effect,PIM-3,-9%
same,percentage effect,PIM-1,-10%
same,percentage effect,CK1GAMMA3,-18%
same,percentage effect,RON,15%
same,percentage effect,LCK,2%
same,percentage effect,HCK,-6%
same,percentage effect,EPHA8,-9%
same,percentage effect,NEK2,-5%
same,percentage effect,PKCGAMMA,-1%
same,percentage effect,TLK2,2%
same,percentage effect,PKCZETA,4%
same,percentage effect,AURKB,0%
same,percentage effect,[…],-10%
same,percentage effect,PKCETA,5%
same,percentage effect,PLK3,-9%
COC1CN(C(=O)c2ccc3c(N)ncc(-c4ccc(-c5cnn(C)c5)cc4)c3c2)C1 [Compound 59],percentage effect,PTK5,-4%
same,percentage effect,FES,-7%
same,percentage effect,DAPK1,-5%
same,percentage effect,PKBBETA,-24%
same,percentage effect,GCK,1%
same,percentage effect,PKBALPHA,4%
same,percentage effect,SAPK3,-11%
same,percentage effect,WNK3,4%
same,percentage effect,SRPK1,-24%
same,percentage effect,TXK,-7%
same,percentage effect,ZAP-70,-6%
same,percentage effect,ARK5,-14%
same,percentage effect,PKCALPHA,-2%
same,percentage effect,MUSK,-18%
same,percentage effect,SIK,-5%
same,percentage effect,SAPK2B,43%
same,percentage effect,EPHA4,1%
same,percentage effect,PRKAA1,-3%
same,percentage effect,FGFR1,11%
same,percentage effect,CK2,8%
same,percentage effect,DRAK1,-18%
same,percentage effect,PHKGAMMA2,2%
same,percentage effect,RSK1,-14%
same,percentage effect,SYK,-11%
same,percentage effect,PRKAA2,2%
same,percentage effect,NEK11,-22%
same,percentage effect,PAK5,-7%
same,percentage effect,PRAK,-17%
same,percentage effect,ULK3,8%
same,percentage effect,PIM-3,9%
same,percentage effect,PIM-1,-13%
same,percentage effect,CK1GAMMA3,19%
same,percentage effect,RON,-11%
same,percentage effect,LCK,-18%
same,percentage effect,HCK,-3%
same,percentage effect,EPHA8,-12%
same,percentage effect,NEK2,-9%
same,percentage effect,PKCGAMMA,9%
same,percentage effect,TLK2,-5%
same,percentage effect,PKCZETA,-13%
same,percentage effect,AURKB,14%
same,percentage effect,[…],8%
same,percentage effect,PKCETA,-4%
same,percentage effect,PLK3,5%
